Laboratory results reported in article PMC8151276, “An Integrated Approach toward NanoBRET Tracers for Analysis of GPCR Ligand Engagement” (Molecules, 2021).

What was measured:
Type in all cases: binding
CX3CR1 = biological target: T1, CX3CR1 (Homo sapiens, UniProt P49238); test: NanoBRET screen HiBiT-CX3CR1 in HEK293
T1 construct: purchased Promega (in-house HiBiT-GPCR construct library, NanoBRET)
T1 sequence (P49238 1-355): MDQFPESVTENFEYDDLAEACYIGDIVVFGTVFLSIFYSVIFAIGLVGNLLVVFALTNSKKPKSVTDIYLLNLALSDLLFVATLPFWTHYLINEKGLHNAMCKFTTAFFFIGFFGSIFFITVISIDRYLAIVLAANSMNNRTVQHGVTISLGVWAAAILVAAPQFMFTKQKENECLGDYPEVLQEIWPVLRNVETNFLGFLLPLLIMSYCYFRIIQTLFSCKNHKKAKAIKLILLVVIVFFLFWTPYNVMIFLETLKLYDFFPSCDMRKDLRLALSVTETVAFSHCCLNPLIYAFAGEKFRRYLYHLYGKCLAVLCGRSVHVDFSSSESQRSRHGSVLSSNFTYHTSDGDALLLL
Procedure: (§1) Each tracer candidate was screened across the entire library of HiBiT-GPCR constructs using NanoBRET as the detection modality. As depicted in Figure 4A, the specificity of interactions was evaluated through decrease in BRET due to competitive displacement of a bound tracer by excess parental compound. Each tracer was analyzed for binding to each HiBiT-GPCR fusion in the absence and in the presence of competing parental compound. Briefly, HEK293 cells were transfected with HiBiT-GPCR constructs diluted into promoterless DNA to reduce expression and maximize translocation to the cell surface. Each tracer candidate was then screened at concentrations of 1 μM and 0.1 μM across cells expressing these fusions. Cells were treated for 1.5 h with tracer either alone or in the presence of 20 μM competing parental compound (i.e., control). BRET was measured upon addition of purified LgBiT and subsequent complementation with HiBiT genetically fused to a GPCR. The specificity of interactions was assessed through a decrease in BRET signal due to competitive displacement of the bound tracer. To further gauge the robustness of these interactions, the fold response over the control (i.e., BRETtracer/BRETcontrol) was calculated. We chose a 1.5-fold response, which translates to ≥7-fold signal over noise as the minimal threshold required to score an interaction as positive. […]. Below we highlight the screening results obtained for our exemplary fluorescent tracers based on Clozapine, Amitriptyline and AZD1283.
(§2) HiBiT-GPCR DNA constructs were diluted in 10 mM Tris pH 8 to a final concentration of 0.01 μg/μL, arrayed in 96-well plates and stored at −20 °C. For transfection, HEK293 cells were suspended in Opti-MEM (without phenol red) supplemented with 2% fetal bovine serum (Seradigm) and 100 units/mL penicillin–streptomycin (Gibco) at a final concentration of 220,000 cells/mL and dispensed into white 96-well plates at 90 μL/well. Subsequent transfections and screens were carried using an Agilent Bravo Automated Liquid Handling Platform. First, the 96-well HiBiT DNA arrays were diluted 25-fold in Opti-MEM (without serum or phenol red) to a final concentration of 0.0004 μg/μL and 20 μL of the diluted DNAs were transferred into new 96-well plates. Next, promoterless carrier DNA (1 μg/μL) was diluted 25-fold (0.04 μg/μL) and then dispensed into the diluted arrays at 20 μL/well. Following brief mixing, Viafect transfection reagent (Promega) diluted 16-fold into Opti-MEM was dispensed into the plates at 40 μL/well. After mixing by pipetting, plates were incubated for 10 min on the pipetting station deck. The DNA-transfection reagent complexes were then added to plates containing cells. To facilitate the screen, 10 μL of DNA-transfection reagent complexes were added in duplicates to the top 4 and bottom 4 rows, resulting in two identical 48-well arrays per plate. Plates with transfected cells were incubated for 18–20 h at 37 °C/5% CO2. A screen of each tracer across the entire library using two different concentrations requires duplicate plates of transfected cells. Depending on the number of tracers being screened, transfections can be scaled up using the same ratios. The next day, for each tracer, four 20× screening solutions in tracer dilution buffer (Promega) were prepared: two duplicates at final concentration of 20 μM and two duplicates at a final concentration of 2 μM. A competing unmodified compound was added to one of each duplicate at a final concentration of 400 μM. The four resulting solutions were diluted 4-fold in Opti-MEM without serum or phenol red to generate 5× solutions (5 µM and 0.5 µM tracer +/− 100 μM competing compound). To screen the library, a BioTek MultiFlo FX liquid dispenser was used to dispense 22.5 µL of tracer solution to the top 4 rows and 22.5 µL tracer + competing compound solution to the 4 bottom rows. Plates were briefly mixed on an orbital shaker and incubated for 1.5 h at room temperature. […]

NPFFR2 = biological target: T2, NPFFR2 (Homo sapiens, UniProt Q9Y5X5); test: NanoBRET screen HiBiT-NPFFR2 in HEK293
T2 construct: purchased Promega (in-house HiBiT-GPCR construct library, NanoBRET)
Procedure: as §1, §2

TBXA2R = biological target: T3, TBXA2R (Homo sapiens, UniProt P21731); test: NanoBRET screen HiBiT-TBXA2R in HEK293
T3 construct: purchased Promega (in-house HiBiT-GPCR construct library, NanoBRET)
T3 sequence (P21731 1-343): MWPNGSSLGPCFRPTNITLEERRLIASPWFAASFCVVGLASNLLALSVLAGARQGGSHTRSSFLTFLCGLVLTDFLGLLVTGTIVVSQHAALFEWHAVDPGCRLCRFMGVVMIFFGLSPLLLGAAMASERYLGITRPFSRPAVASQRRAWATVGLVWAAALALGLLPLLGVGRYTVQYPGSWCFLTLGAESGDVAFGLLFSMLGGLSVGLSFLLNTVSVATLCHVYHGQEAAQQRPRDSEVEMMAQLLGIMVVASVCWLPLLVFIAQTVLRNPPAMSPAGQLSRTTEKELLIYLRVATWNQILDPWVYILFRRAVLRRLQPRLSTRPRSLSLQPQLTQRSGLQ
Procedure: as §1, §2

OXER1 = biological target: T4, OXER1 (Homo sapiens, UniProt Q8TDS5); test: NanoBRET screen HiBiT-OXER1 in HEK293
T4 construct: purchased Promega (in-house HiBiT-GPCR construct library, NanoBRET)
Procedure: as §1, §2

NPBWR1 = biological target: T5, NPBWR1 (Homo sapiens, UniProt P48145); test: NanoBRET screen HiBiT-NPBWR1 in HEK293
T5 construct: purchased Promega (in-house HiBiT-GPCR construct library, NanoBRET)
T5 sequence (P48145 1-328): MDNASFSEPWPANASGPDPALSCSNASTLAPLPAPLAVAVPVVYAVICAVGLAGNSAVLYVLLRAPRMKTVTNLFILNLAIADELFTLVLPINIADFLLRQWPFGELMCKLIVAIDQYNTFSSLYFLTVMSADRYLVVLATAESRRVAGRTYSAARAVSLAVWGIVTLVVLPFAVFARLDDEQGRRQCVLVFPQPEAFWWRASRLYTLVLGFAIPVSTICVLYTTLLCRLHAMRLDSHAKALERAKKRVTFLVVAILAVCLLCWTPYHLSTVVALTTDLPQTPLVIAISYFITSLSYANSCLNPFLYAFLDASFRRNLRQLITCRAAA
Procedure: as §1, §2

T4 sequence (Q8TDS5 whole entry): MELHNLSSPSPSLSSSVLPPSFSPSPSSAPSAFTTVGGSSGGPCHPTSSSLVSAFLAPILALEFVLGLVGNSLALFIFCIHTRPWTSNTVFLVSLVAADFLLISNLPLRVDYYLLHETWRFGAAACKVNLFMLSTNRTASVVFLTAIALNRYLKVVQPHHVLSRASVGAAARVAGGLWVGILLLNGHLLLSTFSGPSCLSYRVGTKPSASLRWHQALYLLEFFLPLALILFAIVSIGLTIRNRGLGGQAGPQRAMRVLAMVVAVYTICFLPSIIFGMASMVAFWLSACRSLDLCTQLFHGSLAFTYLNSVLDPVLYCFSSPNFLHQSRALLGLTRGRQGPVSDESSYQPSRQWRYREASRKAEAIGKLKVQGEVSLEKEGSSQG
T2 sequence (Q9Y5X5 whole entry): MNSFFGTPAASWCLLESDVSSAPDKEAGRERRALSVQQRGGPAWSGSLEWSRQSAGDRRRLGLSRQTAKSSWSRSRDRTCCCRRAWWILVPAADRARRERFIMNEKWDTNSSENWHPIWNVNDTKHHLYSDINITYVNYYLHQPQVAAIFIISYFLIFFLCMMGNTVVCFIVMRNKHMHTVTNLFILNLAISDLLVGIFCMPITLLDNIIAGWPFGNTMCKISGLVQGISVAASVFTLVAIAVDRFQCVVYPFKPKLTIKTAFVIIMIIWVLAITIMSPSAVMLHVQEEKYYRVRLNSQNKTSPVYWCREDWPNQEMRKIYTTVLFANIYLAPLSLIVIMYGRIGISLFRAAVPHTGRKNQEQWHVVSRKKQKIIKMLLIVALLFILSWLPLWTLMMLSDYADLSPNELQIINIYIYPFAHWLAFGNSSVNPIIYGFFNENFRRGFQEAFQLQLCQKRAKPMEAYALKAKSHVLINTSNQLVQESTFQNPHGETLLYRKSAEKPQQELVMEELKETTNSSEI

SMILES | NanoBRET Fold Response (CX3CR1; CX3CR1, tracer 0.1μM) | NanoBRET Fold Response (CX3CR1; CX3CR1, tracer 1μM) | NanoBRET Fold Response (NPFFR2; NPFFR2, tracer 0.1μM) | NanoBRET Fold Response (NPFFR2; NPFFR2, tracer 1μM) | NanoBRET Fold Response (TBXA2R; TBXA2R, tracer 0.1μM) | NanoBRET Fold Response (TBXA2R; TBXA2R, tracer 1μM) | NanoBRET Fold Response (OXER1; OXER1, tracer 0.1μM) | NanoBRET Fold Response (OXER1; OXER1, tracer 1μM) | NanoBRET Fold Response (NPBWR1; NPBWR1, tracer 0.1μM) | NanoBRET Fold Response (NPBWR1; NPBWR1, tracer 1μM) | further results
O=C(CCc1ccc2n1[B-](F)(F)[N+]1=C(c3ccc[nH]3)C=CC1=C2)NCCOCCOCCNC(=O)OCCOCCN1CCN(C2=Nc3ccccc3Sc3ccccc32)CC1 [Quetiapine-a-2-NB590] | 0.90 | 0.95 | 0.99 | 0.97 | 1.01 | 1.05 | 0.99 | 0.98 | 1.01 | 1.04 | –
CN1CCN(C2=Nc3cc(Cl)ccc3Nc3ccc(CNC(=O)CCOCCOCCOCCOCCNC(=O)CCc4ccc5n4[B-](F)(F)[N+]4=C(c6ccc[nH]6)C=CC4=C5)cc32)CC1 [Clozapine-b-2-NB590] | – | – | – | – | – | – | – | – | – | – | NanoBRET Fold Response (CX3CR1; CX3CR1, 0.1μM tracer): 0.98; NanoBRET Fold Response (NPFFR2; NPFFR2, 0.1μM tracer): 1.02; NanoBRET Fold Response (NPFFR2; NPFFR2, 1μM tracer): 1.00; NanoBRET Fold Response (TBXA2R; TBXA2R, 0.1μM tracer): 0.98; NanoBRET Fold Response (TBXA2R; TBXA2R, 1μM tracer): 1.08; NanoBRET Fold Response (OXER1; OXER1, 0.1μM tracer): 0.97; NanoBRET Fold Response (OXER1; OXER1, 1μM tracer): 0.95; NanoBRET Fold Response (NPBWR1; NPBWR1, 0.1μM tracer): 1.05; NanoBRET Fold Response (NPBWR1; NPBWR1, 1μM tracer): 1.07
CC(C)N(CC[C@H](c1ccccc1)c1cc(CCNC(=O)CCOCCOCCOCCOCCNC(=O)CCc2ccc3n2[B-](F)(F)[N+]2=C(c4ccc[nH]4)C=CC2=C3)ccc1O)C(C)C [Tolterodine-2-NB590] | 1.32 | 1.06 | 0.98 | 1.06 | 0.79 | 1.01 | 0.73 | 1.09 | 1.26 | 0.94 | –
Cc1cc2c(s1)Nc1ccccc1N=C2N1CCN(CCCNC(=O)CCOCCOCCOCCOCCNC(=O)CCc2ccc3n2[B-](F)(F)[N+]2=C(c4ccc[nH]4)C=CC2=C3)CC1 [Olanzapine-a-2-NB590] | 1.03 | 0.97 | 0.98 | 1.04 | 0.95 | 1.02 | 0.96 | 1.04 | 0.99 | 1.02 | –
N#CN=C(NCCCOc1cccc(CN2CCCCC2)c1)NCCNC(=O)CCOCCOCCOCCOCCNC(=O)CCc1ccc2n1[B-](F)(F)[N+]1=C(c3ccc[nH]3)C=CC1=C2 [Aminopotentidine-2-NB590] | 1.00 | 1.05 | 0.98 | 1.02 | 0.98 | 1.04 | 1.10 | 1.01 | 0.94 | 0.95 | –
Cc1nc2n(c(=O)c1CCN1CCC(c3noc4cc(F)ccc34)CC1)CCCC2OC(=O)NCCOCCOCCOCCOCCNC(=O)CCc1ccc2n1[B-](F)(F)[N+]1=C(c3ccc[nH]3)C=CC1=C2 (stereo not drawn) [Risperidone-2-NB590] | 1.06 | 1.02 | 1.02 | 0.98 | 0.93 | 1.01 | 1.03 | 1.18 | 1.07 | 1.06 | –
CN(C)CCC=C1c2ccccc2CCc2ccc(C(=O)NCCNC(=O)CCOCCOCCOCCOCCNC(=O)CCc3ccc4n3[B-](F)(F)[N+]3=C(c5ccc[nH]5)C=CC3=C4)cc21 [Amitriptyline-b-2-NB590] | – | – | – | – | – | – | – | – | – | – | NanoBRET Fold Response (CX3CR1; tracer at 0.1μM, listed as amitriptyline-b-2-NB590): 1.14; NanoBRET Fold Response (CX3CR1; tracer at 1μM, listed as amitriptyline-b-2-NB590): 0.86; NanoBRET Fold Response (NPFFR2; tracer at 0.1μM): 1.00; NanoBRET Fold Response (NPFFR2; tracer at 1μM): 1.03; NanoBRET Fold Response (TBXA2R; tracer at 0.1μM): 0.90; NanoBRET Fold Response (TBXA2R; tracer at 1μM): 1.01; NanoBRET Fold Response (OXER1; tracer at 0.1μM): 1.08; NanoBRET Fold Response (OXER1; tracer at 1μM): 0.97; NanoBRET Fold Response (NPBWR1; tracer at 0.1μM): 1.04; NanoBRET Fold Response (NPBWR1; tracer at 1μM): 1.03
